Results on 36 compounds are retold here after patent US8158792B2, “Spiropiperidines for use as tryptase inhibitors” (Janssen Pharmaceutica N.V., priority 2007, dated 2012).

In this test the target is human lung tryptase. Kind of test: β-Tryptase In-Vitro Enzyme Assay. In kind it is biochemical. As to conditions: human lung tryptase 1 nM, substrate H-D-HHT-Ala-Arg-pNa 500 μM, pH 7.4, room temperature. As for the experimental part: The β-tryptase assay was conducted with human lung tryptase (Cortex Biochem #CP3033) in an aqueous buffer (10 mM Tris, 10 mM Hepes, 150 mM NaCl, 0.1% PEG 8000, pH 7.4) using the chromogenic substrate H-D-HHT-Ala-Arg-pNa. […] Percent inhibition was calculated by comparing the initial reaction velocity of samples without inhibitor to those with inhibitor. The initial reaction velocities were analyzed using Microsoft Excel.
What is called IC50 is the concentration needed to halve the response being measured. Read a low IC50 as greater potency. In the case of `NCc1ccc2c(c1)C1(CCN(C(=O)c3ccc(F)c(C(F)(F)F)c3)CC1)CO2` [Cpd 74, 1-(3-trifluoromethyl-4-fluoro-phenyl)carbonyl-5′-aminomethyl-spiro[piperidine-4,3′-(2H)-benzo[b]furan]], it took 160 nM to reach half-maximal inhibition (IC50). This counts as sub-micromolar.

On to `N=C(NN)c1ccc2c(c1)C1(CCN(C(=O)c3ccc(C#Cc4ccccc4)o3)CC1)CO2` [Cpd 307, 1-(5-phenylethynyl-furan-2-yl)carbonyl-5′-[hydrazino(imino)methyl]-spiro[piperidine-4,3′-(2H)-benzo[b]furan]], for which the IC50 was found to be 60 nM.

`COc1ccc(C(=O)N2CCC3(CC2)COc2ccc(CN)cc23)cc1Br` [Cpd 32, 1-(3-bromo-4-methoxy-phenyl)carbonyl-5′-aminomethyl-spiro[piperidine-4,3′-(2H)-benzo[b]furan]] gave an IC50 of 41 nM.

`NCc1ccc2c(c1)C1(CCN(C(=O)c3cn(Cc4ccccc4)c4ccccc34)CC1)CO2` [Cpd 239, 1-(1-benzyl-indol-3-yl)carbonyl-5′-aminomethyl-spiro[piperidine-4,3′-(2H)-benzo[b]furan]] gave an IC50 of 270 nM.

`NCc1ccc2c(c1)C1(CCN(C(=O)c3cc4ccccc4s3)CC1)CO2` [Cpd 110, 1-benzothien-2-ylcarbonyl-5′-aminomethyl-spiro[piperidine-4,3′-(2H)-benzo[b]furan]] returned an IC50 of 37 nM.

As to `NCc1ccc2c(c1)C1(CCN(C(=O)c3sc4cc(F)ccc4c3Cl)CC1)CO2` [Cpd 171, 1-(3-chloro-6-fluoro-benzo[b]thien-2-yl)carbonyl-5′-aminomethyl-spiro[piperidine-4,3′-(2H)-benzo[b]furan]], the IC50 is 170 nM. Against the preceding compound, the IC50 is about 4.6-fold higher.

Regarding `NCc1ccc2c(c1)C1(CCN(C(=O)c3csc(-c4ccncc4)n3)CC1)CO2` [Cpd 122, 1-(2-pyridin-4-yl-thiazol-4-yl)carbonyl-5′-aminomethyl-spiro[piperidine-4,3′-(2H)-benzo[b]furan]], inhibition was half-maximal at 760 nM (IC50).

The compound `NCc1ccc2c(c1)C1(CCN(C(=O)/C=C/c3cccc(F)c3)CC1)CO2` [Cpd 161, (E)-1-(3-fluoro-phenylethenyl)carbonyl-5′-aminomethyl-spiro[piperidine-4,3′-(2H)-benzo[b]furan]] gave an IC50 of 53 nM.

`NCc1ccc2c(c1)C1(CCN(C(=O)Cc3cccc(Oc4ccccc4F)c3)CC1)CO2` [Cpd 210, 1-[3-(2-fluoro-phenoxy)-benzyl]carbonyl-5′-aminomethyl-spiro[piperidine-4,3′-(2H)-benzo[b]furan]] returned an IC50 of 26 nM.

In turn, `NCc1ccc2c(c1)C1(CCN(C(=O)c3cccc(-c4ccc5c(c4)OCO5)c3)CC1)CO2` [Cpd 20, 1-(3-benzodioxol-5-yl-phenyl)carbonyl-5′-aminomethyl-spiro[piperidine-4,3′-(2H)-benzo[b]furan]] had a 50% inhibitory concentration (IC50) of 140 nM.

Regarding `NCc1ccc2c(c1)C1(CCN(C(=O)c3ccc4cc(Br)ccc4c3)CC1)CO2` [Cpd 126, 1-(6-bromo-naphthalen-2-yl)carbonyl-5′-aminomethyl-spiro[piperidine-4,3′-(2H)-benzo[b]furan]], half-maximal inhibition (IC50) required 150 nM.

Compound `NCc1ccc2c(c1)C1(CCN(C(=O)c3cccc(SC(F)(F)F)c3)CC1)CO2` [Cpd 63, 1-(3-trifluoromethylthio-phenyl)carbonyl-5′-aminomethyl-spiro[piperidine-4,3′-(2H)-benzo[b]furan]] displayed an IC50 of 41 nM.

`COc1cccc(-c2ccc(C(=O)N3CCC4(CC3)COc3ccc(CN)cc34)o2)c1` [Cpd 144, 1-[5-(3-methoxy-phenyl)-furan-2-yl]carbonyl-5′-aminomethyl-spiro[piperidine-4,3′-(2H)-benzo[b]furan]] showed an IC50 of 30 nM.

The compound `Cn1cnc(S(=O)(=O)N2CC3(CCN(C(=O)c4ccc(C#Cc5ccccc5)o4)CC3)c3cc(CN)ccc32)c1` [Cpd 336, 1-(5-phenylethynyl-furan-2-yl)carbonyl-1′-(1-methyl-imidazol-4-yl)sulfonyl-5′-aminomethyl-spiro[piperidine-4,3′-(2H)-indole]] displayed an IC50 of 28 nM.

In turn, `NCc1ccc2c(c1)C1(CC2)CCN(C(=O)c2ccc(C#Cc3ccccc3)o2)CC1` [Cpd 318, 1-(5-phenylethynyl-furan-2-yl)carbonyl-5′-aminomethyl-spiro[piperidine-4,3′-indane]] yielded an IC50 of 3.1 nM.

Consider `NCc1ccc2c(c1)C1(CCN(C(=O)c3ccc(OCc4ccccc4)cc3)CC1)CO2` [Cpd 76, 1-(4-benzyloxy-phenyl)carbonyl-5′-aminomethyl-spiro[piperidine-4,3′-(2H)-benzo[b]furan]], for which half-maximal inhibition (IC50) required 420 nM.

Turning to `NCc1ccc2c(c1)C1(CCN(C(=O)c3cc4cc(Cl)ccc4o3)CC1)CO2` [Cpd 13, 1-(5-chloro-benzo[b]-furan-2-yl)carbonyl-5′-aminomethyl-spiro[piperidine-4,3′-(2H)-benzo[b]furan]], 1100 nM corresponded to half-maximal inhibition (IC50). This IC50 lies about 2.6-fold higher than the previous one.

As to `NCc1ccc2c(c1)C1(CCN(C(=O)C#Cc3ccc(O)cc3)CC1)CO2` [Cpd 264, 1-(4-hydroxy-phenylethynyl)carbonyl-5′-aminomethyl-spiro[piperidine-4,3′-(2H)-benzo[b]furan]], the IC50 is 3200 nM.

The compound `Cc1ccc(/C=C/C(=O)N2CCC3(CC2)COc2ccc(CN)cc23)cc1` [Cpd 180, (E)-1-(4-methyl-phenylethenyl)carbonyl-5′-aminomethyl-spiro[piperidine-4,3′-(2H)-benzo[b]furan]] yielded an IC50 of 780 nM. Compared with the last compound, the IC50 is about 4.1-fold lower.

`NCc1ccc2c(c1)C1(CCN(C(=O)c3cc4c(s3)CCC4)CC1)CO2` [Cpd 246, 1-(5,6-dihydro-4H-cyclopenta[b]thien-2-yl)carbonyl-5′-aminomethyl-spiro[piperidine-4,3′-(2H)-benzo[b]furan]] yielded an IC50 of 200 nM.

`NCc1ccc2c(c1)C1(CCN(C(=O)c3cccc(F)c3)CC1)CO2` [Cpd 42, 1-(3-fluoro-phenyl)carbonyl-5′-aminomethyl-spiro[piperidine-4,3′-(2H)-benzo[b]furan]] registered an IC50 of 360 nM.

With `NCc1ccc2c(c1)C1(CCN(C(=O)c3cccc(I)c3)CC1)CO2` [Cpd 48, 1-(3-iodo-phenyl)carbonyl-5′-aminomethyl-spiro[piperidine-4,3′-(2H)-benzo[b]furan]], half-maximal inhibition (IC50) required 16 nM.

With `NCc1ccc2c(c1)C1(CCN(C(=O)c3ccc(Cn4cc(Cl)cn4)o3)CC1)CO2` [Cpd 145, 1-[5-(4-chloro-pyrazol-1-ylmethyl)-furan-2-yl]carbonyl-5′-aminomethyl-spiro[piperidine-4,3′-(2H)-benzo[b]furan]], half-maximal inhibition (IC50) required 340 nM.

The compound `COc1cccc(C(=O)N2CCC3(CC2)COc2ccc(CN)cc23)c1` [Cpd 53, 1-(3-methoxy-phenyl)carbonyl-5′-aminomethyl-spiro[piperidine-4,3′-(2H)-benzo[b]furan]] showed an IC50 of 870 nM.

`COc1ccc2[nH]cc(C(=O)N3CCC4(CC3)COc3ccc(CN)cc34)c2c1` [Cpd 238, 1-(5-methoxy-indol-3-yl)carbonyl-5′-aminomethyl-spiro[piperidine-4,3′-(2H)-benzo[b]furan]] returned an IC50 of 210 nM.

`COc1ccc(C(=O)N2CCC3(CC2)COc2ccc(CN)cc23)cc1I` [Cpd 52, 1-(3-iodo-4-methoxy-phenyl)carbonyl-5′-aminomethyl-spiro[piperidine-4,3′-(2H)-benzo[b]furan]] returned an IC50 of 22 nM.

For `NCc1ccc2c(c1)C1(CCN(C(=O)c3cc(Br)c(Br)s3)CC1)CO2` [Cpd 278, 1-(4,5-dibromo-thien-2-yl)carbonyl-5′-aminomethyl-spiro[piperidine-4,3′-(2H)-benzo[b]furan]], the IC50 stood at 12 nM. This IC50 lies about 1.8-fold lower than the previous one.

Consider `Cc1cc(C(=O)N2CCC3(CC2)COc2ccc(CN)cc23)ccc1I` [Cpd 51, 1-(3-methyl-4-iodo-phenyl)carbonyl-5′-aminomethyl-spiro[piperidine-4,3′-(2H)-benzo[b]furan]], for which inhibition was half-maximal at 190 nM (IC50).

In turn, `NCc1ccc2c(c1)C1(CCN(C(=O)c3ccc(Sc4ccccc4)o3)CC1)CO2` [Cpd 23, 1-[(5-phenylthio)-furan-2-yl]carbonyl-5′-aminomethyl-spiro[piperidine-4,3′-(2H)-benzo[b]furan]] had an IC50 of 90 nM.

`NCc1ccc2c(c1)C1(CCN(C(=O)c3ccc(Br)s3)CC1)CO2` [Cpd 198, 1-(5-bromo-thien-2-yl)carbonyl-5′-aminomethyl-spiro[piperidine-4,3′-(2H)-benzo[b]furan]] came in with an IC50 of 73 nM.

In turn, `NCc1ccc2c(c1)C1(CCN(C(=O)c3ccc(-c4ccccc4)s3)CC1)CO2` [Cpd 114, 1-(5-phenyl-thien-2-yl)carbonyl-5′-aminomethyl-spiro[piperidine-4,3′-(2H)-benzo[b]furan]] registered an IC50 of 240 nM. This IC50 lies about 3.3-fold higher than the previous one.

As for `NCc1ccc2c(c1)C1(CCN(C(=O)/C=C/c3ccccc3)CC1)CO2` [Cpd 109, (E)-1-(phenylethenyl)carbonyl-5′-aminomethyl-spiro[piperidine-4,3′-(2H)-benzo[b]furan]], half-maximal inhibition (IC50) was put at 210 nM.

As to `CC(C)(C)c1ccc(C#Cc2ccc(C(=O)N3CCC4(CC3)COc3ccc(CN)cc34)o2)cc1` [Cpd 282, 1-[5-(4-tert-butyl-phenylethynyl)-furan-2-yl]carbonyl-5′-aminomethyl-spiro[piperidine-4,3′-(2H)-benzo[b]furan]], the IC50 amounted to 700 nM.

`NCc1ccc2c(c1)C1(CCN(C(=O)c3sc4cc(Br)ccc4c3Cl)CC1)CO2` [Cpd 230, 1-(3-chloro-6-bromo-benzo[b]thien-2-yl)carbonyl-5′-aminomethyl-spiro[piperidine-4,3′-(2H)-benzo[b]furan]] yielded an IC50 of 140 nM.

For the compound `Cc1ccsc1/C=C/C(=O)N1CCC2(CC1)COc1ccc(CN)cc12` [Cpd 356, (E)-1-(3-methyl-thien-2-ylethenyl)carbonyl-5′-aminomethyl-spiro[piperidine-4,3′-(2H)-benzo[b]furan]], the IC50 came out at 180 nM.

In turn, `NCc1ccc2c(c1)C1(CCN(C(=O)c3cc4c(s3)CCCC4)CC1)CO2` [Cpd 163, 1-(5,6,7-trihydro-4H-benzo[b]thien-2-yl)carbonyl-5′-aminomethyl-spiro[piperidine-4,3′-(2H)-benzo[b]furan]] came in with an IC50 of 54 nM.
